Assays:
[1] = tested on: CYP-induced visceral pain; assay: Acute cyclophosphamide (CYP)-induced cystitis model, von Frey mechanical stimulation; assay type: in vivo, female Sprague-Dawley rats; settings: 500 mg/kg p.o.
Experimental: The aim of the present study was to evaluate, the effects of oral administration of Nicotinamide Mono-Nucleoside (NMN), Pro-drug A (alpha-NMN) and Pro-drug B (compound I-A), compounds I-B and I-C at 500 mg/kg on visceral pain response in the acute cyclophosphamide (CYP)-induced cystitis model in female Sprague-Dawley rats.
Female Sprague-Dawley rats, 7 weeks at delivery
• NMN: 500 mg/kg • Pro-drug A: 500 mg/kg • Pro-drug B (compound I-A): 500 mg/kg • Compound I-B: 500 mg/kg • Compound I-C; 500 mg/kg • Vehicle: distilled water • Route of administration: per os (p.o.), 5 mL/kg • Frequency of administration: once at DO, 15 min prior CYP intraperitoneal (i.p.) injection.
=>lowered threshold=allodynia • Nociceptive score: % of the maximal response (total=9 for 3 pooled applications) for each filament

[2] = tested on: doxorubicin-induced cardiotoxicity; assay: Model of doxorubicin-induced cardiotoxicity; assay type: in vivo, male mice; settings: 5 days after DOX 20 mg/kg; for survival rate: 180 mg/kg i.p. once daily; for end-systolic LV volume: vs DOX vehicle group; for heart weight: vs DOX vehicle mice
Experimental: The aim of the present study was to evaluate, the effects of i.p administration of Nicotinamide Mononucleotide (NMN), compound I-B and compound I-C at 180 mg/kg in the progression of a cardiotoxicity induced by doxorubicin.
76 male mice, 8-week-old at the arrival were obtained from Janvier Labs, Le Genest St Isle, 53941 St Berthevin, France. Each animal was identified with electronic chip. Each cage was numbered. Based on the animal number/cage and number of cages, the animals were assigned of unique number with the name of group and mice number.
The powder of NMN, compounds I-B and I-C (180 mg/kg) were dissolved in vehicle (the solution is used at room temperature for maximum 1 day). A fresh sample for each administration was prepared every day except the week-end (the solution is prepared on Saturday and is used on Saturday and Sunday).
Cardiotoxicity was induced by a single intraperitoneal injection of doxorubicin (DOX) at 20 mg/kg. Doxorubicin was prepared at 2 mg/mL and volume of administration was 10 mL/Kg.
At D0, mice were injected with DOX (20 mg/kg) by intraperitoneal route.
The treatment with NMN, compounds I-B and I-C was initiated from 5 days before DOX injection, once per day, from D-5 to DO.
Mice were i.p treated with NMN, compounds I-B and I-C 30 min before DOX injection.
Mice were i.p treated with NMN, compounds I-B and I-C for the duration of the experiment (D0 to D5) once per day. Last injection occurred 24 hours before sacrifice.
The bodyweight was assessed at inclusion and at D5.
The survival rate was recorded every day until the end of the experiment (D5).
Retro-orbital blood collection was performed at the inclusion and at 1 and 5 days after the […] with DOX to assess biomarker (LDH and creatinine).
Echocardiography (ECG) was performed 5 days after doxorubicin injection in anesthetized (isoflurane 1.5-2%) animals with non-invasive two-dimensional echocardiography (VF16-5 probe, Siemens, Acuson NX3 Elite). After removing hairs on the chest, numeric images of the heart were obtained in both parasternal long-axis and short axis views.
The following cardiac function were assessed during ECG: • Left ventricle (LV) end-systolic and end-diastolic inner diameter; • LV end-systolic and end-diastolic volume, • Fractionnal shortening; • Ejection fraction; • Heart Rate; and • Anterior and posterior wall thickness in Diastole and in systole.

[3] = tested on: SS RBCs; assay: RBC sickling under hypoxia ex vivo (sickle cell disease mouse model); assay type: in vivo, Townes S/S mice; settings: 1% O2 for 30 minutes ex vivo
Experimental: The aim of the present study was to evaluate, the effects of i.p. administration of Nicotinamide Mononucleotide (NMN), compound I-B and compound I-C at 185 mg/kg as modulator of red blood cell sickling and their potential role in therapy for sickle cell disease on a mouse model of SCD.
Townes S/S mice on a 129/B6 mixed genetic background.
The powder of NMN, compounds I-B and I-C (185 mg/kg) were dissolved in vehicle (the solution was used at room temperature for maximum 1 day). A fresh sample for each administration was prepared every day except the week-end (the solution is prepared on Saturday and is used on Saturday and Sunday).
In Townes S/S mice, mouse alpha- and beta-globin gene loci are deleted and replaced by human alpha- and beta-globins. When carrying two copies of the beta S allele, mice develop a human sickle cell disease phenotype with sickle-shaped red blood cells seen in blood smears.
Mice were i.p treated with NMN, compounds I-B and I-C during all the experiment (D0 to D15) once per day. Last injection occurred 24 hours before sacrifice.
Retro-orbital blood collection was performed at the inclusion D0 and at D5, D10 and D15 through facial vein bleeding.
Red blood cells collected were submitted to hypoxia (1% O2) for 30 minutes to induce sickling. Percentage of sickle cells was then assessed.
SS RBCs from treated mice were collected at D0, D5, D10 and D15 and were submitted to hypoxia for 30 minutes in a hypoxic chamber (1% O2). Percentage of sickling RBCs was then assessed for each time point with compounds NMN, I-B and I-C.

[4] = after 15 days treatment 185 mg/kg i.p. once daily

## NC(=O)c1ccc[n+]([C@H]2O[C@H](COP(=O)([O-])O)[C@@H](O)[C@H]2O)c1 [Pro-Drug A, alpha-NMN, reference compound]
[1]; +2 h after CYP
  nociceptive scores (CYP-induced visceral pain) vs vehicle: decrease
  nociceptive threshold (CYP-induced allodynia) vs vehicle: non-significant increase
[1]; +4 h after CYP
  nociceptive scores (CYP-induced visceral pain) vs vehicle: achieved the statistical level
  nociceptive threshold (CYP-induced allodynia) vs vehicle: significant increase

## NC(=O)c1ccc[n+]([C@@H]2O[C@H](COP(=O)([O-])OP(=O)([O-])OC[C@H]3O[C@H]([n+]4cccc(C(N)=O)c4)[C@H](O)[C@@H]3O)[C@@H](O)[C@H]2O)c1 [Compound I-B]
[1]; +2 h after CYP
  nociceptive scores (CYP-induced visceral pain) vs vehicle: significant decrease
[1]; +4 h after CYP
  nociceptive scores (CYP-induced visceral pain) vs vehicle: significant decrease
[1]; +6 h after CYP
  nociceptive scores (CYP-induced visceral pain) vs vehicle: significant decrease
  nociceptive threshold (CYP-induced allodynia) vs vehicle: significant increase
[2]
  survival rate: 98 % of survival
[2]; 180 mg/kg i.p.
  ejection fraction: 60.0±0.6%
  fractional shortening: around 38%
  heart rate: 470.1±18.8 bpm
  end-systolic LV volume: reduced
  heart weight: tended to increase heart weight
[2]; 180 mg/kg i.p., vs DOX vehicle
  LV anterior and posterior wall thickness in systole: non-significant increases
  body weight loss after doxorubicin administration: significantly decreased
[3]; D0 (start of treatment)
  percentage of sickling cells: 32%
[3]; [4]
  percentage of sickling cells: less than 15%

## NC(=O)c1ccc[n+]([C@H]2O[C@H](COP(=O)([O-])OP(=O)([O-])OC[C@H]3O[C@H]([n+]4cccc(C(N)=O)c4)[C@H](O)[C@@H]3O)[C@@H](O)[C@H]2O)c1 [Compound I-C]
[1]; +2 h after CYP
  nociceptive scores (CYP-induced visceral pain) vs vehicle: significant decrease
[1]; +4 h after CYP
  nociceptive scores (CYP-induced visceral pain) vs vehicle: significant decrease
[1]; +6 h after CYP
  nociceptive scores (CYP-induced visceral pain) vs vehicle: significant decrease
  nociceptive threshold (CYP-induced allodynia) vs vehicle: significant increase
[2]
  survival rate: 100 % of survival
[2]; 180 mg/kg i.p.
  ejection fraction: 58.2±0.5%
  fractional shortening: around 38%
  end-systolic LV volume: reduced
  heart weight: tended to increase heart weight
[2]; 180 mg/kg i.p., vs DOX vehicle
  LV anterior and posterior wall thickness in systole: non-significant increases
  body weight loss after doxorubicin administration: significantly decreased
  heart rate (change in words): increased heart rates
[3]; D0 (start of treatment)
  percentage of sickling cells: 31%
[3]; [4]
  percentage of sickling cells: 20%

## NC(=O)c1ccc[n+]([C@@H]2O[C@H](COP(=O)([O-])O)[C@@H](O)[C@H]2O)c1 [NMN, Nicotinamide Mononucleotide, reference compound]
[1]; +2 h after CYP
  nociceptive scores (CYP-induced visceral pain) vs vehicle: significant decrease
  nociceptive threshold (CYP-induced allodynia) vs vehicle: slight increase
[1]; +4 h after CYP
  nociceptive scores (CYP-induced visceral pain) vs vehicle: significant decrease
  nociceptive threshold (CYP-induced allodynia) vs vehicle: slight increase
[2]
  survival rate: 78 % of survival
[2]; 180 mg/kg i.p.
  ejection fraction: 56.9±0.6%
  fractional shortening: around 38%
  end-systolic LV volume: reduced
[2]; 180 mg/kg i.p., vs DOX vehicle
  LV anterior and posterior wall thickness in systole: non-significant increases
  body weight loss after doxorubicin administration: significantly decreased
  heart rate (change in words): increased heart rates
  reduction in plasma LDH release/levels: more than 35%
[3]; D0 (start of treatment)
  percentage of sickling cells: 40%
[3]; [4]
  percentage of sickling cells: less than 10%
